The target of one assay is T1, RORγ-LBD (Homo sapiens, UniProt P51449).
T1 construct: made in house; host or cells: SF9 cells (baculovirus)
T1 sequence (P51449 269-508 limits assumed): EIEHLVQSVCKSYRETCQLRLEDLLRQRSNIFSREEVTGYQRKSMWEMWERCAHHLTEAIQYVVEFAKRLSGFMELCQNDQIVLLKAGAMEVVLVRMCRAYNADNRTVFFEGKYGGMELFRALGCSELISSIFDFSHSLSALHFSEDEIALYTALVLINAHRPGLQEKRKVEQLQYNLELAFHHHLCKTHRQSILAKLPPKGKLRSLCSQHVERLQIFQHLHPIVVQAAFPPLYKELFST
Kind of assay: RORγ-Ligand Binding Domain (LBD) TR-FRET Assay.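 On TR-FRET Assay Max Response: 665/615 nm ratio relative to signal without ursolic acid or compound set at 100.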 The assay is classed as biochemical. The gist of the method: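 This TR-FRET coactivator assay pairs baculovirus-expressed His-RORγ-LBD (~3 nM final) with biotin-SRC1 LXXLL peptide at 200 nM final in pH 7.0 Tris/KCl/EDTA/DTT/BSA buffer.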
Background: TR-FRET usually uses a lanthanide donor and a delayed reading to cut background.

A further assay has as its target T2, Gal4-RORγ-LBD (Homo sapiens, UniProt P51449).
T2 construct: expressed in transfected cells; host or cells: HEK-293 cells (pcDNA3.1neo plasmid)
T2 sequence (P51449 269-508 limits assumed): T1 sequence (P51449 269-508 limits assumed)
The assay can be described thus: Gal4-RORγ Luciferase Reporter Assay in HEK-293T Cells. The assay is classed as cell-based. To be noted: HEK-293 cells. The gist of the method:
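Luminescence read-out (One-Glo, 10 min RT) after overnight compound exposure at 37 °C in HEK-293 cells carrying Gal4-RORγ-LBD plus a Gal4-luciferase reporter, in the presence of 2 μM ursolic acid. Max Response is the upper plateau from a 4-parameter logistic fit, normalized to untreated signal = 100.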
(In a reporter assay the amount or activity of a reporter protein is the signal.)

Setting [1] is: luciferase reporter, with 2 μM ursolic acid.

One may read the EC50 as the concentration at which the effect is half-maximal.

For the molecule `NS(=O)(=O)CCC(=O)NC[C@H]1CN(S(=O)(=O)c2cccc(C(F)(F)F)c2)c2cc(-c3cccc(C(F)(F)F)n3)ccc2O1` [Compound 30BG, (S)-3-sulfamoyl-N-((4-((3-(trifluoromethyl)phenyl)-sulfonyl)-6-(6-(trifluoro-methyl)pyridin-2-yl)-3,4-dihydro-2H-benzo[b][1,4]-oxazin-2-yl)methyl)-propanamide], on RORγ-LBD, the EC50 was < 500 nM and the “TR-FRET Assay Max Response” value is given as “*** (The symbol “***” indicates a value in the range of greater than 150 to 200)”. In addition, at Gal4-RORγ-LBD (setting [1]), the half-maximal effective concentration (EC50) lay in the range of 500 to 5000 nM and the “Gal4-RORγ Assay Max Response” value is “** (The symbol “**” indicates a value in the range of greater than 90 to 150)”.
For `O=C(O)CC[C@H]1CN(S(=O)(=O)c2cccc(C(F)(F)F)c2)c2cc(-c3cccc(F)c3F)cc(F)c2O1` [Compound 22E, (S)-3-(6-(2,3-difluorophenyl)-8-fluoro-4-((3-(trifluoromethyl)phenyl)sulfonyl)-3,4-dihydro-2H-benzo[b][1,4]-oxazin-2-yl)propanoic acid], at RORγ-LBD, the 50% effective concentration (EC50) is < 500 nM and the “TR-FRET Assay Max Response” value is reported as “**** (The symbol “****” indicates a value greater than 200)”. Besides, on Gal4-RORγ-LBD (setting [1]), the EC50 was < 500 nM and the “Gal4-RORγ Assay Max Response” value is “** (The symbol “**” indicates a value in the range of greater than 90 to 150)”.
As for `CC(C)c1cccc(S(=O)(=O)N2C[C@H](CNC(=O)C(C)(C)O)Oc3ccc(-c4cc(F)ccc4F)cc32)c1` [Compound 30K, (S)-N-((6-(2,5-difluorophenyl)-4-((3-isopropylphenyl)sulfonyl)-3,4-dihydro-2H-benzo[b][1,4]-oxazin-2-yl)methyl)-2-hydroxy-2-methylpropanamide], at RORγ-LBD, the EC50 was < 500 nM and the “TR-FRET Assay Max Response” value is on record as “**** (The symbol “****” indicates a value greater than 200)”. For the same molecule, on Gal4-RORγ-LBD (setting [1]), the concentration giving a half-maximal response (EC50) is < 500 nM and the “Gal4-RORγ Assay Max Response” value is on record as “* (The symbol “*” indicates a value in the range of 25 to 90)”.
Turning to `O=C(O)CC[C@H]1CN(S(=O)(=O)c2cccc(C(F)(F)F)c2)c2cc(-c3cccc(F)c3F)c(Cl)cc2O1` [Compound 22B, (S)-3-(7-chloro-6-(2,3-difluorophenyl)-4-((3-(trifluoromethyl)phenyl)sulfonyl)-3,4-dihydro-2H-benzo[b][1,4]-oxazin-2-yl)propanoic acid], on RORγ-LBD, the EC50 is < 500 nM and the “TR-FRET Assay Max Response” value is reported as “**** (The symbol “****” indicates a value greater than 200)”. At Gal4-RORγ-LBD (setting [1]), the EC50 is < 500 nM and the “Gal4-RORγ Assay Max Response” value is on record as “** (The symbol “**” indicates a value in the range of greater than 90 to 150)”.
Turning to `Cc1cccc(-c2ccc3c(c2)N(S(=O)(=O)c2cccc(C(F)(F)F)c2)C[C@H](CC(C)(C)C(=O)O)O3)c1Cl` [Compound 32AX, (S)-3-(6-(2-chloro-3-methyl-phenyl)-4-((3-(trifluoromethyl)-phenyl)sulfonyl)-3,4-dihydro-2H-benzo[b][1,4]oxazin-2-yl)-2,2-dimethylpropanoic acid], on RORγ-LBD, the EC50 was < 500 nM and the “TR-FRET Assay Max Response” value is reported as “** (The symbol “**” indicates a value in the range of greater than 90 to 150)”. Moreover, at Gal4-RORγ-LBD (2 μM ursolic acid), the EC50 was < 500 nM and the “Gal4-RORγ Assay Max Response” value was “** (The symbol “**” indicates a value in the range of greater than 90 to 150)”.
On to `O=C(O)C1(C[C@H]2CN(S(=O)(=O)c3cccc(C(F)(F)F)c3)c3cc(-c4cccc(C(F)(F)F)n4)ccc3O2)CCC1` [Compound 32BL, (S)-l-((4-((3-(trifluoromethyl)-phenyl)sulfonyl)-6-(6-(trifluoro-methyl)pyridin-2-yl)-3,4-dihydro-2H-benzo[b][1,4]oxazin-2-yl)methyl)cyclobutane-1-carboxylic acid], for which, on RORγ-LBD, the EC50 was < 500 nM and the “TR-FRET Assay Max Response” value is given as “** (The symbol “**” indicates a value in the range of greater than 90 to 150)”. In addition, on Gal4-RORγ-LBD (2 μM ursolic acid), the EC50 was < 500 nM and the “Gal4-RORγ Assay Max Response” value is “* (The symbol “*” indicates a value in the range of 25 to 90)”.
For the molecule `CC(=O)N[C@@H](C(=O)NC[C@H]1CN(S(=O)(=O)c2cccc(C(F)(F)F)c2)c2cc(-c3cc(F)ccc3F)ccc2O1)C(C)C` [Compound 30AS], on RORγ-LBD, the half-maximal effective concentration (EC50) was < 500 nM and the “TR-FRET Assay Max Response” value is recorded as “*** (The symbol “***” indicates a value in the range of greater than 150 to 200)”. In addition, at Gal4-RORγ-LBD (setting [1]), the EC50 lay in the range of 500 to 5000 nM and the “Gal4-RORγ Assay Max Response” value is “* (The symbol “*” indicates a value in the range of 25 to 90)”.
With `COc1cc(S(=O)(=O)N2C[C@H](CCC(=O)O)Oc3ccc(-c4cccc(Cl)c4)cc32)ccc1F` [Compound 5, (S)-3-(6-(3-chlorophenyl)-4-((4-fluoro-3-methoxyphenyl)sulfonyl)-3,4-dihydro-2H-benzo[b][1,4]oxazin-2-yl)propanoic acid], at RORγ-LBD, the half-maximal effective concentration (EC50) is < 500 nM and the “TR-FRET Assay Max Response” value is on record as “*** (The symbol “***” indicates a value in the range of greater than 150 to 200)”. Further, on Gal4-RORγ-LBD (setting [1]), the concentration giving a half-maximal response (EC50) lay in the range of 500 to 5000 nM and the “Gal4-RORγ Assay Max Response” value is “** (The symbol “**” indicates a value in the range of greater than 90 to 150)”.
Taken in the same sequence, the figures for `COc1cc(F)cc(-c2ccc3c(c2)N(S(=O)(=O)c2cccc(C(F)(F)F)c2)C[C@H](CCC(=O)O)O3)c1F` [Compound 4AZ, (S)-3-(6-(2,5-difluoro-3-methoxyphenyl)-4-((3-(trifluoromethyl)phenyl)-sulfonyl)-3,4-dihydro-2H-benzo[b][1,4]oxazin-2-yl)propanoic acid] were < 500 nM, “**** (The symbol “****” indicates a value greater than 200)”, < 500 nM and “** (The symbol “**” indicates a value in the range of greater than 90 to 150)”.
On to `CS(=O)(=O)NC(=O)CC[C@H]1CN(S(=O)(=O)c2cccc(C(F)(F)F)c2)c2cc(-c3cc(F)ccc3F)ccc2O1` [Compound 42, (S)-3-(6-(2,5-difluorophenyl)-4-((3-(trifluoromethyl)phenyl)sulfonyl)-3,4-dihydro-2H-benzo[b][1,4]oxazin-2-yl)-N-(methylsulfonyl)propanamide], for which, at RORγ-LBD, the EC50 is < 500 nM and the “TR-FRET Assay Max Response” value is listed as “**** (The symbol “****” indicates a value greater than 200)”. Also, at Gal4-RORγ-LBD (setting [1]), the EC50 is < 500 nM and the “Gal4-RORγ Assay Max Response” value is “** (The symbol “**” indicates a value in the range of greater than 90 to 150)”.
`Cc1cc(C)cc(-c2ccc3c(c2)N(S(=O)(=O)c2cccc(C(F)(F)F)c2)C[C@H](CC2(C(=O)O)CCOCC2)O3)c1` [Compound 78G, (S)-4-((6-(3,5-dimethylphenyl)-4-((3-(trifluoromethyl)phenyl)-sulfonyl)-3,4-dihydro-2H-benzo[b][1,4]oxazin-2-yl)methyl)tetrahydro-2H-pyran-4-carboxylic acid]: at RORγ-LBD, the EC50 is < 500 nM and the “TR-FRET Assay Max Response” value is “** (The symbol “**” indicates a value in the range of greater than 90 to 150)”. For the same molecule, at Gal4-RORγ-LBD (2 μM ursolic acid), the 50% effective concentration (EC50) was < 500 nM and the “Gal4-RORγ Assay Max Response” value is listed as “** (The symbol “**” indicates a value in the range of greater than 90 to 150)”.
Take `CC(C)n1cc(-c2ccc3c(c2)N(S(=O)(=O)c2cccc(C(F)(F)F)c2)C[C@H](CCC(=O)O)O3)cn1` [Compound 4AC, (S)-3-(6-(1-isopropyl-1H-pyrazol-4-yl)-4-((3-(trifluoromethyl)phenyl)sulfonyl)-3,4-dihydro-2H-benzo[b][1,4]oxazin-2-yl)propanoic acid]: on RORγ-LBD, the EC50 is < 500 nM and the “TR-FRET Assay Max Response” value is reported as “**** (The symbol “****” indicates a value greater than 200)”. For the same molecule, on Gal4-RORγ-LBD (setting [1]), the EC50 was < 500 nM and the “Gal4-RORγ Assay Max Response” value is on record as “* (The symbol “*” indicates a value in the range of 25 to 90)”.
Consider `O=S(=O)(c1cccc(C(F)(F)F)c1)N1C[C@H](CCCO)Oc2ccc(-c3cccc(Cl)c3)cc21` [Compound 34D, (S)-3-(6-(3-chlorophenyl)-4-((3-(trifluoromethyl)phenyl)sulfonyl)-3,4-dihydro-2H-benzo[b][1,4]-oxazin-2-yl)propan-1-ol], for which, at RORγ-LBD, the EC50 is < 500 nM and the “TR-FRET Assay Max Response” value is “**** (The symbol “****” indicates a value greater than 200)”. For the same molecule, at Gal4-RORγ-LBD (setting [1]), the EC50 was < 500 nM and the “Gal4-RORγ Assay Max Response” value is reported as “** (The symbol “**” indicates a value in the range of greater than 90 to 150)”.
As to `CC(C)(C[C@H]1CN(S(=O)(=O)c2cccc(C(F)(F)F)c2)c2cc(-c3cc(F)cc(Cl)c3)ccc2O1)C(=O)O` [Compound 32Y, (S)-3-(6-(3-chloro-5-fluoro-phenyl)-4-((3-(trifluoromethyl)-phenyl)sulfonyl)-3,4-dihydro-2H-benzo[b][1,4]oxazin-2-yl)-2,2-dimethylpropanoic acid], at RORγ-LBD, the EC50 was < 500 nM and the “TR-FRET Assay Max Response” value is recorded as “*** (The symbol “***” indicates a value in the range of greater than 150 to 200)”. Further, at Gal4-RORγ-LBD (2 μM ursolic acid), the EC50 was < 500 nM and the “Gal4-RORγ Assay Max Response” value is given as “** (The symbol “**” indicates a value in the range of greater than 90 to 150)”.
